Results from article PMC9783573, “Introduction of a SiFA Moiety into the D-Glutamate Chain of DOTA-PP-F11N Results in Radiohybrid-Based CCK-2R-Targeted Compounds with Improved Pharmacokinetics In Vivo” (Pharmaceuticals, 2022).
Like-named read-outs stand apart in the source and are kept apart here. Non-standard residues stand in square brackets, D forms with d. Residues, ends and D or L forms follow the SMILES beside them. *: point of attachment. X1 = O=C(O)CN1CCN(CC(=O)O)CCN([C@H](CCC(=O)*)C(=O)O)CCN(CC(=O)O)CC1; Benzoyl(4-SiFtBu2) = CC(C)(C)[Si](F)(c1ccc(C(=O)*)cc1)C(C)(C)C; Nle = CCCC[C@H](N)C(=O)O; dDap = NC[C@@H](N)C(=O)O

What was measured:
[1] = Lipophilicity, n-octanol/PBS (pH 7.4) distribution coefficient; assay type: physicochemical
In short: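 logD7.4 measured by shake-flask with ^177Lu-labelled peptide (approx. 1 MBq) in 1/1 n-octanol/PBS pH 7.4, vortexed 3 min at RT and centrifuged 5 min. Both phases counted by γ-counter; at least five repeats.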

[2] = biological target: T1, CCK-2R (Rattus norvegicus, UniProt P30553); assay: Competitive binding (IC50) on AR42J cells with [177Lu]Lu-DOTA-PP-F11N as radiolabelled reference; conditions: natLu-labelled peptide, AR42J cells 2.0 × 10^5/well, 3 h, 37 °C, [177Lu]Lu-DOTA-PP-F11N 0.3 pmol/well
T1 construct: CCK-2R expressing rat pancreatic cancer cells AR42J (CLS GmbH, Eppelheim,; host or cells: AR42J rat pancreatic cancer cells
T1 sequence (P30553 1-452): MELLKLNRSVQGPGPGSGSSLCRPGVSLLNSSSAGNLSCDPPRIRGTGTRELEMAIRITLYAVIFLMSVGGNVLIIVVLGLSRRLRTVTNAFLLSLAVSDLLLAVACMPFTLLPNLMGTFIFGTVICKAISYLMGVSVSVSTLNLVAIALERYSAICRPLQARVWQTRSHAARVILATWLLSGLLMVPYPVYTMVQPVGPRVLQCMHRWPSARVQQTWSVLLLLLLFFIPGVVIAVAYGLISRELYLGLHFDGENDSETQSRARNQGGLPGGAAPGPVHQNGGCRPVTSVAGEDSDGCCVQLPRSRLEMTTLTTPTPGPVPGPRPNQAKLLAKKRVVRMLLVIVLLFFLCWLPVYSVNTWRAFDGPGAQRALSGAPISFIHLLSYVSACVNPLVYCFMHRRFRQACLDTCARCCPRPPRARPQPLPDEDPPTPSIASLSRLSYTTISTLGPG
Method: Detailed description of all cell-based experiments is provided in the Supplementary Materials. In brief, competitive binding studies were conducted on AR42J cells (2.0 × 10^5 cells per 1 mL/well) via incubation at 37 °C for 3 h using [^177Lu]Lu-DOTA-PP-F11N (0.3 pmol) as a radiolabelled reference (n = 3).
Cell Culture. CCK-2R expressing rat pancreatic cancer cells AR42J (CLS GmbH, Eppelheim, Germany) were cultivated in monolayers in CELLSTAR ® cell culture flasks acquired from Greiner Bio-One GmbH (Frickenhausen, Germany) at 37 °C in a humidified atmosphere (5% CO2) using a HERAcell 150i-Incubator (Thermo Fisher Scientific Inc., Waltham, United States). As nutrient medium RPMI 1640 medium, supplemented with 5 mM L-Gln 5 mL non-essential amino acids (100×) and 10% FCS, was used. Furthermore, a Dulbecco’s PBS solution with 0.1% EDTA (v/v) was applied to detach the cells for cell passaging. The detached cells were counted using a Neubauer hemocytometer ( Paul Marienfeld, Lauda-Königshofen, Germany). In addition, all operations under sterile conditions were accomplished using a MSC-Advantage safety workbench (Thermo Fisher Scientific Inc., Waltham, United States).
Determination of IC50. AR42J cells (2.0 × 10^5 cells/well) were seeded into 24-well plates 24 ± 2 h prior to testing, using 1 mL of nutrient medium (RPMI 1640, 5 mM L-Gln, 5 mL non-essential amino acids (100×), 10% FCS). Cells were incubated at 37 °C in a humidified atmosphere (5% CO2).
After removal of the medium, each well was washed with 500 μL PBS. For the cell-based assay, 200 μL of nutrient medium (+5% BSA), [177Lu]Lu-DOTA-PP-F11N (25 μL, 0.3 pmol) as a radiolabeled reference and 25 μL of the peptide of interest in increasing concentrations (10−10 to 10−4 M) in triplicate were added to the cells. Thereafter, the assay was incubated for 3 h at 37 °C and thereafter, the supernatant was collected. The cells were washed with 300 μL PBS and the collected supernatant fractions were unified.
After lysis of the cells with NaOH (300 μL, 1 N) for 15 min, the respective wells were washed with NaOH (300 μL, 1 N) and both fractions were unified. The radioactivity of both, the supernatant and the lysed fractions was quantified using a γ-counter (PerkinElmer Inc., Waltham, United States ). The obtained data were evaluated via the GraphPad PRISM software ( GraphPad Software Inc., La Jolla, United States), which calculates the halfmaximal inhibitory concentration ( IC50) of the peptides. […]

[3] = 177Lu-labelled peptide, n-octanol/PBS pH 7.4, read-out: logD7.4

logD ([1]; pH 7.4)	IC50 ([2]; listed as [^natLu]Lu-CP04, read-out: IC50) [nM]	IC50 ([2]; read-out: IC50) [nM]	SMILES	logD [1, 3]	IC50 [2] [nM]
–	–	–	CCCC[C@H](NC(=O)[C@H](Cc1c[nH]c2ccccc12)NC(=O)CNC(=O)[C@H](Cc1ccc(O)cc1)NC(=O)[C@H](C)NC(=O)[C@@H](CCC(=O)O)NC(=O)[C@@H](CCC(=O)O)NC(=O)[C@@H](CCC(=O)O)NC(=O)[C@@H](CCC(=O)O)NC(=O)[C@@H](CCC(=O)O)NC(=O)[C@@H](CCC(=O)O)NC(=O)[C@@H](CCC(=O)O)NC(=O)[C@@H](CCC(=O)O)NC(=O)[C@@H](CNC(=O)c1ccc([Si](F)(C(C)(C)C)C(C)(C)C)cc1)NC(=O)CC[C@H](C(=O)O)N1CCN(CC(=O)O)CCN(CC(=O)O)CCN(CC(=O)O)CC1)C(=O)N[C@@H](CC(=O)O)C(=O)N[C@@H](Cc1ccccc1)C(N)=O [[nat/177Lu]Lu-(R)-DOTAGA-rhCCK-9, metal not drawn] (X1-[dDap](Benzoyl(4-SiFtBu2))[dE][dE][dE][dE][dE][dE][dE][dE]AYGW[Nle]DF-NH2)	-2.84 ± 0.04	55.3 ± 7.8
–	–	–	CCCC[C@H](NC(=O)[C@H](Cc1c[nH]c2ccccc12)NC(=O)CNC(=O)[C@H](Cc1ccc(O)cc1)NC(=O)[C@H](C)NC(=O)CC[C@@H](NC(=O)CC[C@@H](NC(=O)CC[C@@H](NC(=O)CC[C@@H](NC(=O)CC[C@@H](NC(=O)CC[C@@H](NC(=O)[C@@H](CNC(=O)c1ccc([Si](F)(C(C)(C)C)C(C)(C)C)cc1)NC(=O)CC[C@H](C(=O)O)N1CCN(CC(=O)O)CCN(CC(=O)O)CCN(CC(=O)O)CC1)C(=O)O)C(=O)O)C(=O)O)C(=O)O)C(=O)O)C(=O)O)C(=O)N[C@@H](CC(=O)O)C(=O)N[C@@H](Cc1ccccc1)C(N)=O [[nat/177Lu]Lu-(R)-DOTAGA-rhCCK-16, metal not drawn]	-2.54 ± 0.05	20.4 ± 2.7
-3.8 ± 0.1	11 to 13	–	CSCC[C@H](NC(=O)[C@H](Cc1c[nH]c2ccccc12)NC(=O)CNC(=O)[C@H](Cc1ccc(O)cc1)NC(=O)[C@H](C)NC(=O)[C@@H](CCC(=O)O)NC(=O)[C@@H](CCC(=O)O)NC(=O)[C@@H](CCC(=O)O)NC(=O)[C@@H](CCC(=O)O)NC(=O)[C@@H](CCC(=O)O)NC(=O)[C@@H](CCC(=O)O)NC(=O)CN1CCN(CC(=O)O)CCN(CC(=O)O)CCN(CC(=O)O)CC1)C(=O)N[C@@H](CC(=O)O)C(=O)N[C@@H](Cc1ccccc1)C(N)=O [[nat/177Lu]Lu-CP04, metal not drawn, reference compound]	–	–
–	–	11 to 13	CCCC[C@H](NC(=O)[C@H](Cc1c[nH]c2ccccc12)NC(=O)CNC(=O)[C@H](Cc1ccc(O)cc1)NC(=O)[C@H](C)NC(=O)[C@@H](CCC(=O)O)NC(=O)[C@@H](CCC(=O)O)NC(=O)[C@@H](CCC(=O)O)NC(=O)[C@@H](CCC(=O)O)NC(=O)[C@@H](CCC(=O)O)NC(=O)[C@@H](CCC(=O)O)NC(=O)CN1CCN(CC(=O)O)CCN(CC(=O)O)CCN(CC(=O)O)CC1)C(=O)N[C@@H](CC(=O)O)C(=O)N[C@@H](Cc1ccccc1)C(N)=O [[nat/177Lu]Lu-DOTA-PP-F11N, metal not drawn, reference compound]	-4.75 ± 0.07	–
